Source: patent US10087166B2, “Cyclic amine azaheterocyclic carboxamides” (Merck Patent GmbH, priority 2010, dated 2018)

Each compound was assayed against T1, P70S6K (Homo sapiens, UniProt P23443, T412E) (assay: P70S6K enzyme assay). Details: P70S6K T412E mutant 3 nM, 24 μM ATP, FITC-AHA-AKRRRLSSLRA-OH substrate, 90 min at 25° C.; read-out: IC50p70S6K.
T1 construct: purchased Millipore
T1 sequence (P23443 whole entry T412E): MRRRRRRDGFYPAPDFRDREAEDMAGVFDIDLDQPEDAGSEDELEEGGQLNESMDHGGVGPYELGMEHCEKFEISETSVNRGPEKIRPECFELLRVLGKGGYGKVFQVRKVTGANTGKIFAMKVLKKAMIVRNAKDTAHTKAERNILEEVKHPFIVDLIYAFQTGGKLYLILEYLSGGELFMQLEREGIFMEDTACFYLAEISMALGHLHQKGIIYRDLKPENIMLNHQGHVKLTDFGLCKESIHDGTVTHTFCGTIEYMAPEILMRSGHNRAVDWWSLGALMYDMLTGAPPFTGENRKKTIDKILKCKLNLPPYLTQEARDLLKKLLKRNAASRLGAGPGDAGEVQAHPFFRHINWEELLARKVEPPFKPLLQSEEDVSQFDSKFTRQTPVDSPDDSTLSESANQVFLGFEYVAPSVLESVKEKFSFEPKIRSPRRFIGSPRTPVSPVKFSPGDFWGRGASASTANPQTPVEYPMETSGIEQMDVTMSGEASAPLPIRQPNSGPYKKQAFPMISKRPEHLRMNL
Format: biochemical
Method: P70S6K inhibitor compounds are diluted and plated in 96 well plates. A reaction mixture including the following components is then added to the compound plate to initiate the enzyme reaction; P70S6K (3 nM, T412E mutant, Millipore) is mixed with 24 μM ATP in an assay buffer containing 100 mM Hepes (pH 7.5), 5 mM MgCl2, 1 mM DTT, 0.015% Brij and 1 μM of the substrate peptide FITC-AHA-AKRRRLSSLRA-OH (derived from the S6 ribosomal protein sequence, FITC=fluorescein isothiocyanate, AHA=6-aminohexanoic acid). The reaction is incubated for 90 min at 25° C., before the addition of 10 mM EDTA to stop the reaction. The proportion of substrate and product (phosphorylated) peptide is analyzed on a Caliper Life Sciences Lab Chip 3000, using a pressure of −1.4 psi, and upstream and downstream voltages of −3000 and −700 respectively. Product peaks are resolved before substrate peaks on the resulting chromatograms.
To assess the inhibitory potential of the compounds, IC50-values were determined, as shown in Chemical Synthesis section above.
COc1cccc([C@@H]2CNC[C@H]2Nc2ncnc3c(C(N)=O)cccc23)c1 [compound 73, 4-(((3S,4R)-4-(3-methoxyphenyl)pyrrolidin-3-yl)amino)quinazoline-8-carboxamide] showed an IC50 of 6.4 nM.
For Cc1cc([C@H]2CNC[C@@H]2Nc2ncnc3c(C(N)=O)cccc23)ccc1F [compound 75, 4-(((3R,4S)-4-(4-fluoro-3-methylphenyl)pyrrolidin-3-yl)amino)quinazoline-8-carboxamide], the IC50 was 64 nM.
Compound Cc1cc([C@@H]2CNC[C@H]2Nc2ncnc3c(C(N)=O)cccc23)ccc1F [compound 76, 4-(((3S,4R)-4-(4-fluoro-3-methylphenyl)pyrrolidin-3-yl)amino)quinazoline-8-carboxamide] has an IC50 of 3.4 nM.
Work on NC(=O)c1cccc2c(N[C@@H]3CNC[C@H]3c3cccc4ccccc34)ncnc12 [compound 79, 4-(((3S,4R)-4-(naphthalen-1-yl)pyrrolidin-3-yl)amino)quinazoline-8-carboxamide] yielded an IC50 of 1.2 nM.
NC(=O)c1cccc2c(N[C@H]3CNC[C@@H]3c3ccc4ccccc4c3)ncnc12 [compound 80, 4-(((3R,4S)-4-(naphthalen-2-yl)pyrrolidin-3-yl)amino)quinazoline-8-carboxamide] showed an IC50 of 24 nM.
Work on Cc1nc(N[C@H]2CNC[C@@H]2c2cccc(F)c2)c2cccc(C(N)=O)c2n1 [compound 83, 4-(((3R,4S)-4-(3-fluorophenyl)pyrrolidin-3-yl)amino)-2-methylquinazoline-8-carboxamide] yielded an IC50 of 160 nM.
In the case of Cc1nc(N[C@@H]2CNC[C@H]2c2cccc(F)c2)c2cccc(C(N)=O)c2n1 [compound 84, 4-(((3S,4R)-4-(3-fluorophenyl)pyrrolidin-3-yl)amino)-2-methylquinazoline-8-carboxamide], the IC50 is reported as 1.7 nM.
In the case of N#Cc1cccc([C@H]2CNC[C@@H]2Nc2ncnc3c(C(N)=O)cccc23)c1 [compound 87, 4-(((3R,4S)-4-(3-cyanophenyl)pyrrolidin-3-yl)amino)quinazoline-8-carboxamide], the IC50 is reported as 81 nM.
N#Cc1cccc([C@@H]2CNC[C@H]2Nc2ncnc3c(C(N)=O)cccc23)c1 [compound 88, 4-(((3S,4R)-4-(3-cyanophenyl)pyrrolidin-3-yl)amino)quinazoline-8-carboxamide] showed an IC50 of 2.4 nM.
Compound NC(=O)c1cccc2c(N[C@H]3CNC[C@@H]3c3ccc4c(c3)CCO4)ncnc12 [compound 90, 4-(((3R,4S)-4-(2,3-dihydrobenzofuran-5-yl)pyrrolidin-3-yl)amino)quinazoline-8-carboxamide] has an IC50 of 4 nM.
With NC(=O)c1cccc2c(N[C@@H]3CNC[C@H]3c3ccc4c(c3)CCO4)ncnc12 [compound 91, 4-(((3S,4R)-4-(2,3-dihydrobenzofuran-5-yl)pyrrolidin-3-yl)amino)quinazoline-8-carboxamide] the IC50 was 53 nM.
Cc1c(F)cccc1[C@H]1CNC[C@@H]1Nc1ncnc2c(C(N)=O)cccc12 [compound 93, 4-(((3R,4S)-4-(3-fluoro-2-methylphenyl)pyrrolidin-3-yl)amino)quinazoline-8-carboxamide] gave an IC50 of 1.2 nM.
Work on Cc1c(F)cccc1[C@@H]1CNC[C@H]1Nc1ncnc2c(C(N)=O)cccc12 [compound 94, 4-(((3S,4R)-4-(3-fluoro-2-methylphenyl)pyrrolidin-3-yl)amino)quinazoline-8-carboxamide] yielded an IC50 of 52 nM.
Work on NC(=O)c1cccc2c(N[C@H]3CNC[C@@H]3c3cccc(Cl)c3)ncnc12 [compound 95, 4-(((3R,4S)-4-(3-chlorophenyl)pyrrolidin-3-yl)amino)quinazoline-8-carboxamide] yielded an IC50 of 48 nM.
With COc1ccc([C@@H]2CNC[C@H]2Nc2ncnc3c(C(N)=O)cccc23)cc1 [compound 96, 4-(((3S,4R)-4-(4-methoxyphenyl)pyrrolidin-3-yl)amino)quinazoline-8-carboxamide] the IC50 was 4.1 nM.
Work on COc1ccc([C@H]2CNC[C@@H]2Nc2ncnc3c(C(N)=O)cccc23)cc1 [compound 97, 4-(((3R,4S)-4-(4-methoxyphenyl)pyrrolidin-3-yl)amino)quinazoline-8-carboxamide] yielded an IC50 of 81 nM.
For NC(=O)c1cccc2c(N[C@@H]3CNC[C@H]3c3ccc(Cl)c(F)c3)ncnc12 [compound 101, 4-(((3S,4R)-4-(4-chloro-3-fluorophenyl)pyrrolidin-3-yl)amino)quinazoline-8-carboxamide], the IC50 was 1.1 nM.
With NC(=O)c1cccc2c(N[C@@H]3CNC[C@H]3c3cc(F)c(F)cc3F)ncnc12 [compound 106, 4-(((3S,4R)-4-(2,4,5-trifluorophenyl)pyrrolidin-3-yl)amino)quinazoline-8-carboxamide] the IC50 was 2.8 nM.
In the case of NC(=O)c1cccc2c(N[C@H]3CNC[C@@H]3c3ccc(Cl)c(F)c3)ncnc12 [compound 112, 4-(((3R,4S)-4-(4-chloro-3-fluorophenyl)pyrrolidin-3-yl)amino)quinazoline-8-carboxamide], the IC50 is reported as 330 nM.
For NC(=O)c1cccc2c(N[C@@H]3CNCC[C@H]3c3ccc(C(F)(F)F)cc3)ncnc12 [compound 128], the IC50 was 230 nM.
NC(=O)c1cccc2c(N[C@H]3CNCC[C@@H]3c3ccc(C(F)(F)F)cc3)ncnc12 [compound 129, 4-(((3R,4R)-4-(4-(trifluoromethyl)phenyl)piperidin-3-yl)amino)quinazoline-8-carboxamide] showed an IC50 of 1.2 nM.
With NC(=O)c1cccc2c(N[C@H]3CNCC[C@@H]3c3cccc(C(F)(F)F)c3)ncnc12 [compound 130, 4-(((3R,4R)-4-(3-(trifluoromethyl)phenyl)piperidin-3-yl)amino)quinazoline-8-carboxamide] the IC50 was 1.2 nM.
Compound NC(=O)c1cccc2c(N[C@@H]3CNCC[C@H]3c3cccc(C(F)(F)F)c3)ncnc12 [compound 131, 4-(((3S,4S)-4-(3-(trifluoromethyl)phenyl)piperidin-3-yl)amino)quinazoline-8-carboxamide] has an IC50 of 160 nM.
